Columns and labels:
Format in all cases: in vivo
[1] = system: barnyardgrass (Echinochloa crus-galli); assay: Test A preemergence, barnyardgrass; details: 0 to 100 scale (0 no effect, 100 complete control)
Procedure, shortened: (§1)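 Greenhouse assay; ~10 d; visual injury vs untreated control, scored 0 = no effect through 100 = complete control. Post-emergent seedlings at one–two leaves; pre-emergent seeds in loam/sand given a directed soil spray.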

kochia (Kochia scoparia) [2] = assay: Test A preemergence, kochia; details: 0 to 100 scale (0 no effect, 100 complete control)
Procedure, shortened: as §1

[3] = system: ragweed (common ragweed, Ambrosia elatior); assay: Test A preemergence, ragweed; details: 0 to 100 scale (0 no effect, 100 complete control)
Procedure, shortened: as §1

[4] = system: ryegrass, Italian (Lolium multiflorum); assay: Test A preemergence, Italian ryegrass; details: 0 to 100 scale (0 no effect, 100 complete control)
Procedure, shortened: as §1

[5] = system: foxtail, giant (Setaria faberii); assay: Test A preemergence, giant foxtail; details: 0 to 100 scale (0 no effect, 100 complete control)
Procedure, shortened: as §1

[6] = system: pigweed (Amaranthus retroflexus); assay: Test A preemergence, pigweed; details: 0 to 100 scale (0 no effect, 100 complete control)
Procedure, shortened: as §1

[7] = system: barnyardgrass (Echinochloa crus-galli); assay: Test A postemergence, barnyardgrass; details: visual injury, 0 to 100 scale (0 no effect, 100 complete control), approximately 10 days
Procedure, shortened: as §1

kochia (Kochia scoparia) [8] = assay: Test A postemergence, kochia; details: visual injury, 0 to 100 scale (0 no effect, 100 complete control), approximately 10 days
Procedure, shortened: as §1

[9] = system: ragweed (common ragweed, Ambrosia elatior); assay: Test A postemergence, ragweed; details: visual injury, 0 to 100 scale (0 no effect, 100 complete control), approximately 10 days
Procedure, shortened: as §1

[10] = system: ryegrass, Italian (Lolium multiflorum); assay: Test A postemergence, Italian ryegrass; details: visual injury, 0 to 100 scale (0 no effect, 100 complete control), approximately 10 days
Procedure, shortened: as §1

[11] = system: foxtail, giant (Setaria faberii); assay: Test A postemergence, giant foxtail; details: visual injury, 0 to 100 scale (0 no effect, 100 complete control), approximately 10 days
Procedure, shortened: as §1

[12] = system: pigweed (Amaranthus retroflexus); assay: Test A postemergence, pigweed; details: visual injury, 0 to 100 scale (0 no effect, 100 complete control), approximately 10 days
Procedure, shortened: as §1

[13] = system: blackgrass (Alopecurus myosuroides); assay: Test A postemergence, blackgrass; details: visual injury, 0 to 100 scale (0 no effect, 100 complete control), approximately 10 days
Procedure, shortened: as §1

[14] = system: galium (catchweed bedstraw, Galium aparine); assay: Test A postemergence, galium; details: visual injury, 0 to 100 scale (0 no effect, 100 complete control), approximately 10 days
Procedure, shortened: as §1

[15] = system: wheat (Triticum aestivum); assay: Test A postemergence, wheat; details: visual injury, 0 to 100 scale (0 no effect, 100 complete control), approximately 10 days
Procedure, shortened: as §1

corn (Zea mays) = assay: Test A postemergence, corn; details: visual injury, 0 to 100 scale (0 no effect, 100 complete control), approximately 10 days
Procedure, shortened: as §1

rice (Oryza sativa) = assay: Test B flooded paddy test, rice; details: applied to paddy water, visual rating after 13 to 15 days, scale 0 (no effect) to 100 (complete control)
Procedure, shortened: (§2)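 In-water treatment: compound dosed into 3 cm flood over soil, water level unchanged throughout. Controls run alongside; visual assessment at day 13–15.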

[16] = system: sedge, umbrella (small-flower umbrella sedge, Cyperus difformis); assay: Test B flooded paddy test, umbrella sedge; details: applied to paddy water, visual rating after 13 to 15 days, scale 0 (no effect) to 100 (complete control)
Procedure, shortened: as §2

[17] = system: ducksalad (Heteranthera limosa); assay: Test B flooded paddy test, ducksalad; details: applied to paddy water, visual rating after 13 to 15 days, scale 0 (no effect) to 100 (complete control)
Procedure, shortened: as §2

[18] = system: barnyardgrass (Echinochloa crus-galli); assay: Test B flooded paddy test, barnyardgrass; details: applied to paddy water, visual rating after 13 to 15 days, scale 0 (no effect) to 100 (complete control)
Procedure, shortened: as §2

| SMILES | Plant response rating, Barnyardgrass ([1]; 125 g ai/ha) | Plant response rating, Barnyardgrass ([1]; 500 g ai/ha) | Plant response rating, Kochia (kochia (Kochia scoparia) [2]; 125 g ai/ha) | Plant response rating, Kochia (kochia (Kochia scoparia) [2]; 500 g ai/ha) | Plant response rating, Ragweed ([3]; 125 g ai/ha) | Plant response rating, Ragweed ([3]; 500 g ai/ha) | Plant response rating, Ryegrass, Italian ([4]; 125 g ai/ha) | Plant response rating, Ryegrass, Italian ([4]; 500 g ai/ha) | Plant response rating, Foxtail, Giant ([5]; 125 g ai/ha) | Plant response rating, Foxtail, Giant ([5]; 500 g ai/ha) | Plant response rating, Pigweed ([6]; 125 g ai/ha) | Plant response rating, Pigweed ([6]; 500 g ai/ha) | Plant response rating, Barnyardgrass ([7]; 125 g ai/ha) | Plant response rating, Barnyardgrass ([7]; 500 g ai/ha) | Plant response rating, Kochia (kochia (Kochia scoparia) [8]; 125 g ai/ha) | Plant response rating, Kochia (kochia (Kochia scoparia) [8]; 500 g ai/ha) | Plant response rating, Ragweed ([9]; 125 g ai/ha) | Plant response rating, Ragweed ([9]; 500 g ai/ha) | Plant response rating, Ryegrass, Italian ([10]; 125 g ai/ha) | Plant response rating, Ryegrass, Italian ([10]; 500 g ai/ha) | also measured |
| --- | --- | --- | --- | --- | --- | --- | --- | --- | --- | --- | --- | --- | --- | --- | --- | --- | --- | --- | --- | --- | --- |
| O=C1NCC(c2cccc(Cn3ccc(C(F)(F)F)n3)c2)C1C(=O)Nc1cccc(F)c1F (stereo not drawn) [Compound 25, N-(2,3-difluorophenyl)-2-oxo-4-[3-[[3-(trifluoromethyl)-1H-pyrazol-1-yl]methyl]phenyl]-3-pyrrolidinecarboxamide] | 20 | 40 | 0 | 20 | 0 | 0 | 0 | 0 | 50 | 80 | 0 | 0 | 20 | 60 | 0 | 0 | 0 | 0 | 0 | 0 | Plant response rating, Foxtail, Giant ([11]; 125 g ai/ha): 20; Plant response rating, Foxtail, Giant ([11]; 500 g ai/ha): 60; Plant response rating, Pigweed ([12]; 125 g ai/ha): 0; Plant response rating, Pigweed ([12]; 500 g ai/ha): 0; Plant response rating, Blackgrass ([13]; 125 g ai/ha): 0; Plant response rating, Blackgrass ([13]; 500 g ai/ha): 0; Plant response rating, Galium ([14]; 125 g ai/ha): 0; Plant response rating, Galium ([14]; 500 g ai/ha): 0; Plant response rating, Wheat ([15]; 125 g ai/ha): 0; Plant response rating, Wheat ([15]; 500 g ai/ha): 0; Plant response rating, Corn (corn (Zea mays); 125 g ai/ha): 0; Plant response rating, Corn (corn (Zea mays); 500 g ai/ha): 0; Plant response rating, Rice (Flood) (rice (Oryza sativa); 500 g ai/ha): 15; Plant response rating, Sedge, Umbrella (Flood) ([16]; 500 g ai/ha): 0; Plant response rating, Ducksalad (Flood) ([17]; 500 g ai/ha): 60; Plant response rating, Barnyardgrass (Flood) ([18]; 500 g ai/ha): 0 |
| C[Si](C)(C)C#Cc1cccc(C2CNC(=O)C2C(=O)Nc2cccc(F)c2F)c1 (stereo not drawn) [Compound 33] | 60 | 80 | 0 | 0 | 0 | 0 | 0 | 0 | 60 | 80 | 0 | 0 | 0 | 50 | 0 | 40 | 0 | 0 | 0 | 0 | Plant response rating, Foxtail, Giant ([11]; 125 g ai/ha): 0; Plant response rating, Foxtail, Giant ([11]; 500 g ai/ha): 50; Plant response rating, Pigweed ([12]; 125 g ai/ha): 0; Plant response rating, Pigweed ([12]; 500 g ai/ha): 0; Plant response rating, Blackgrass ([13]; 125 g ai/ha): 0; Plant response rating, Blackgrass ([13]; 500 g ai/ha): 0; Plant response rating, Galium ([14]; 125 g ai/ha): 0; Plant response rating, Galium ([14]; 500 g ai/ha): 20; Plant response rating, Wheat ([15]; 125 g ai/ha): 0; Plant response rating, Wheat ([15]; 500 g ai/ha): 0; Plant response rating, Corn (corn (Zea mays); 125 g ai/ha): 0; Plant response rating, Corn (corn (Zea mays); 500 g ai/ha): 0; Plant response rating, Rice (Flood) (rice (Oryza sativa); 250 g ai/ha): 0; Plant response rating, Sedge, Umbrella (Flood) ([16]; 250 g ai/ha): 0; Plant response rating, Ducksalad (Flood) ([17]; 250 g ai/ha): 50; Plant response rating, Barnyardgrass (Flood) ([18]; 250 g ai/ha): 0 |
